Earlier results on 1 compound are cited in US20230172880A1, “FAST-ACTING TOPICAL ANESTHETIC FORMULATIONS” (priority 2020, published 2023).

For this data set the following is noted: administered directly into tissue.

As for `CCN(CC)CC(=O)Nc1c(C)cccc1C` [lidocaine], the onset entry is listed as “less than 2 min”.
